The record followed here is ChEMBL document CHEMBL3044769, “A brief synthesis of natural antifeedant, 1-(2,4,6-trimethoxyphenyl) but-2(E)-en-1-one” (1994).

The test has as its system Spodoptera litura. As to the kind of experiment: Antifeedant activity in Spodoptera litura assessed as feeding ratio at 0.1% of the diet. The test is classed as functional.

For the compound `C/C=C/C(=O)c1c(OC)cc(OC)cc1OC`, the Activity came out at 50.5%.
